A short description of data set [1]: Acute toxicity in zebrafish embryo assessed as mortality rate at 16 microg/ml preincubated with compound for 24 hrs and measured after 48 to 72 hrs post fertilization. On the set-up: species or system Danio rerio. Conditions: in vivo, at 16 µg/mL.
Data set [2] concerns Klebsiella pneumoniae. Description: Antimicrobial activity against Carbapenem -resistant Klebsiella pneumoniae ATCC 13883 assessed as inhibition of microbial growth incubated for 24 hrs by broth-microdilution assay. It counts as functional.
The test system of data set [3] is Candida albicans. Description: Synergistic antifungal activity against Candida albicans ATCC 10231 assessed as Voriconazole MIC incubated for 48 hrs by CLSI based analysis. Format: functional. The following applies: read-out: MIC100.
In data set [4] the test system is Klebsiella pneumoniae. Description: Synergistic antimicrobial activity against Klebsiella pneumoniae ATCC BAA1705 assessed as fractional inhibitory concentration index incubated for 24 hrs in presence of Imipenem by checkerboard assay. It counts as functional.
In data set [5] the test system is Staphylococcus aureus. Description: Antimicrobial activity against Staphylococcus aureus ATCC 29213 assessed as inhibition of microbial growth incubated for 24 hrs by broth-microdilution assay. It counts as functional. Conditions: Staphylococcus aureus, ATCC 29213, read-out: MIC100.
Data set [6] is described as follows: Acute toxicity in zebrafish embryo assessed as mortality rate at 32 microg/ml preincubated with compound for 24 hrs and measured after 24 hrs post fertilization. Also noted: species or system Danio rerio. The following applies: in vivo, at 32 µg/mL.
For data set [7], the system named is Pseudomonas aeruginosa. Description: Antimicrobial activity against Pseudomonas aeruginosa ATCC 27853 assessed as inhibition of microbial growth incubated for 24 hrs by broth-microdilution assay. It counts as functional. For orientation: Broth dilution looks for growth in wells or tubes with falling amounts of substance.
For data set [8], the system named is Candida albicans. Description: Antifungal activity against Candida albicans ATCC 90028 assessed as reduction in fungal growth incubated for 48 hrs by CLSI based analysis. Format: functional.
Data set [9] in a line: Acute toxicity in zebrafish embryo assessed as mortality rate at 4 microg/ml preincubated with compound for 24 hrs and measured after 96 hrs post fertilization. Also noted: species or system Danio rerio. The following applies: in vivo, at 4 µg/mL.
Data set [10] deals with Staphylococcus aureus. Description: Antimicrobial activity against Staphylococcus aureus ATCC 43300 assessed as inhibition of microbial growth incubated for 24 hrs by broth-microdilution assay. The following applies: Staphylococcus aureus, ATCC 43300, read-out: MIC100. Format: functional.
Data set [11] is described as follows: Acute toxicity in zebrafish embryo assessed as mortality rate at 16 microg/ml preincubated with compound for 24 hrs and measured after 24 hrs post fertilization. On the set-up: species or system Danio rerio. The following applies: in vivo, at 16 µg/mL.
Data set [12] concerns Pseudomonas aeruginosa. Briefly: Antimicrobial activity against Pseudomonas aeruginosa PAO1 assessed as inhibition of microbial growth at 128 microg/ml incubated for 24 hrs by broth-microdilution assay relative to control. Format: functional.
The subject of data set [13] is Klebsiella pneumoniae. Briefly: Synergistic antimicrobial activity against Klebsiella pneumoniae ATCC BAA1705 assessed as inhibition of microbial growth incubated for 24 hrs in presence of Imipenem by checkerboard assay. It counts as functional. Conditions: read-out: MIC100.
Data set [14] concerns Klebsiella pneumoniae. Description: Antimicrobial activity against Carbapenem-resistant Klebsiella pneumoniae ATCC BAA1705 assessed as inhibition of microbial growth incubated for 24 hrs by broth-microdilution assay. Format: functional.
The nature of data set [15]: Acute toxicity in zebrafish embryo assessed as mortality rate at 16 microg/ml preincubated with compound for 24 hrs and measured after 96 hrs post fertilization. Also noted: species or system Danio rerio. Conditions: in vivo, at 16 µg/mL.
A short description of data set [16]: Acute toxicity in zebrafish embryo assessed as mortality rate at 2 microg/ml preincubated with compound for 24 hrs and measured after 96 hrs post fertilization. On the set-up: species or system Danio rerio. Conditions: in vivo, at 2 µg/mL.
Data set [17] is described as follows: Acute toxicity in zebrafish embryo assessed as mortality rate at 4 microg/ml preincubated with compound for 24 hrs and measured after 24 hrs post fertilization. On the set-up: species or system Danio rerio. The following applies: in vivo, at 4 µg/mL.
Data set [18] has as its system Staphylococcus aureus. Briefly: Synergistic antimicrobial activity against methicillin resistant Staphylococcus aureus 43300 assessed as inhibition of microbial growth incubated for 24 hrs in presence of Oxacillin by checkerboard assay. It counts as functional. The following applies: read-out: MIC100.
Data set [19] relates to Staphylococcus epidermidis. Description: Antimicrobial activity against Staphylococcus epidermidis ATCC 35984 assessed as inhibition of microbial growth incubated for 24 hrs by broth-microdilution assay. Format: functional. The following applies: Staphylococcus epidermidis, ATCC 35984, read-out: MIC.
Data set [20] concerns Candida albicans. Briefly: Antifungal activity against Candida albicans ATCC 10231 assessed as reduction in fungal growth incubated for 48 hrs by CLSI based analysis. Format: functional. Conditions: read-out: MIC100.
Data set [21] has as its system Staphylococcus epidermidis. Briefly: Antimicrobial activity against Staphylococcus epidermidis ATCC 12228 assessed as inhibition of microbial growth incubated for 24 hrs by broth-microdilution assay. Format: functional. Conditions: Staphylococcus epidermidis, ATCC 12228, read-out: MIC.
The subject of data set [22] is Klebsiella pneumoniae. Briefly: Synergistic antimicrobial activity against Klebsiella pneumoniae ATCC BAA1705 assessed as Imipenem MIC incubated for 24 hrs by checkerboard assay. Format: functional. Conditions: read-out: MIC100.
Data set [23] in a line: Acute toxicity in zebrafish embryo assessed as mortality rate at 8 microg/ml preincubated with compound for 24 hrs and measured after 96 hrs post fertilization. On the set-up: species or system Danio rerio. Conditions: in vivo, at 8 µg/mL.
In data set [24] the test system is Pseudomonas aeruginosa. Briefly: Antimicrobial activity against Pseudomonas aeruginosa PAO1 assessed as inhibition of microbial growth incubated for 24 hrs by broth-microdilution assay. Format: functional.
Data set [25] is described as follows: Acute toxicity in zebrafish embryo assessed as mortality rate at 8 microg/ml preincubated with compound for 24 hrs and measured after 24 hrs post fertilization. The following applies: in vivo, at 8 µg/mL. On the set-up: species or system Danio rerio.
The test system of data set [26] is Staphylococcus aureus. Briefly: Antimicrobial activity against Staphylococcus aureus 29213 assessed as inhibition of microbial growth incubated for 24 hrs by broth-microdilution assay. Format: functional.
The subject of data set [27] is Pseudomonas aeruginosa. Description: Antimicrobial activity against Pseudomonas aeruginosa 27853 assessed as inhibition of microbial growth at 128 microg/ml incubated for 24 hrs by broth-microdilution assay relative to control. It counts as functional.
Data set [28] has as its system Klebsiella pneumoniae. Description: Antimicrobial activity against Klebsiella pneumoniae ATCC BAA1705 assessed as inhibition of microbial growth incubated for 24 hrs by broth-microdilution assay. Format: functional.
For data set [29], the system named is Staphylococcus aureus. Description: Antimicrobial activity against methicillin resistant Staphylococcus aureus 43300 assessed as inhibition of microbial growth incubated for 24 hrs by broth-microdilution assay. Format: functional. The following applies: read-out: MIC.
Data set [30] concerns Staphylococcus aureus. Briefly: Synergistic antimicrobial activity against methicillin resistant Staphylococcus aureus 43300 assessed as fractional inhibitory concentration index incubated for 24 hrs in presence of Oxacillin by checkerboard assay. It counts as functional.
Data set [31] relates to Klebsiella pneumoniae. Description: Antimicrobial activity against Klebsiella pneumoniae ATCC 13883 assessed as inhibition of microbial growth incubated for 24 hrs by broth-microdilution assay. It counts as functional. Conditions: read-out: MIC.
Data set [32] is described as follows: Acute toxicity in zebrafish embryo assessed as mortality rate at 4 microg/ml preincubated with compound for 24 hrs and measured after 48 to 72 hrs post fertilization. Also noted: species or system Danio rerio. The following applies: in vivo, at 4 µg/mL.
The subject of data set [33] is Staphylococcus aureus. Description: Synergistic antimicrobial activity against methicillin resistant Staphylococcus aureus 43300 assessed as Oxacillin MIC incubated for 24 hrs by checkerboard assay. It counts as functional. Conditions: read-out: MIC100.
Data set [34] can be described thus: Acute toxicity in zebrafish embryo assessed as mortality rate at 0.7 microg/ml preincubated with compound for 24 hrs and measured after 96 hrs post fertilization. On the set-up: species or system Danio rerio. Conditions: in vivo, at 0.7 µg/mL.
The nature of data set [35]: Acute toxicity in zebrafish embryo assessed as mortality rate at 32 microg/ml preincubated with compound for 24 hrs and measured after 96 hrs post fertilization. On the set-up: species or system Danio rerio. Conditions: in vivo, at 32 µg/mL.
Data set [36] has as its system Candida albicans. Description: Synergistic antifungal activity against Candida albicans ATCC 10231 assessed as reduction in fungal growth incubated for 48 hrs in presence of Voriconazole by CLSI based analysis. Format: functional. The following applies: read-out: MIC100.
Data set [37] can be described thus: Acute toxicity in zebrafish embryo assessed as mortality rate at 8 microg/ml preincubated with compound for 24 hrs and measured after 48 to 72 hrs post fertilization. On the set-up: species or system Danio rerio. The following applies: in vivo, at 8 µg/mL.
The nature of data set [38]: Acute toxicity in zebrafish embryo preincubated with compound for 24 hrs and measured after 48 to 72 hrs post fertilization. Conditions: in vivo. Also noted: species or system Danio rerio.
Data set [39] is described as follows: Acute toxicity in zebrafish embryo preincubated with compound for 24 hrs and measured after 24 hrs post fertilization. Also noted: species or system Danio rerio. The following applies: in vivo.
Data set [40] in a line: Acute toxicity in zebrafish embryo preincubated with compound for 24 hrs and measured after 96 hrs post fertilization. Also noted: species or system Danio rerio. Conditions: in vivo.
Data set [41] deals with Candida albicans. Description: Synergistic antifungal activity against Candida albicans ATCC 10231 assessed as fractional inhibitory concentration index incubated for 48 hrs in presence of Voriconazole by CLSI based analysis. Format: functional.

Values after ≈ are worked out from the molar mass of the structure shown.

Experimental findings from ChEMBL document CHEMBL5537143, “Synthesis and antimicrobial properties of guanidine-functionalized labdane type diterpenoids” (Eur J Med Chem, 2024) are described below.

By mortality is commonly meant the percentage killed. In general, inhibition refers to how much of the control response was suppressed. As a reminder, the LC50 is the concentration that kills 50% of the test population.

Turning to `CC1(C)CCC[C@]2(C)[C@H]3CC[C@](C)(CC(=O)NC(=N)N)O[C@]3(C)CC[C@@H]12`, the mortality at 16 microg/ml in data set [1] was determined as 100%. Besides, the MIC in data set [2] was found to be 32 µg/mL; in data set [3], 0.125 µg/mL; in data set [5] it was 8 µg/mL; in [8] (read-out: MIC), 16 µg/mL (≈ 44 µM); in [10], 8 µg/mL; in data set [13] it was 16 µg/mL. For the same compound, the MIC in data set [14] turned out to be 32 µg/mL; in [18], 4 µg/mL; in data set [19] it was 4 µg/mL; in [20], 16 µg/mL (≈ 44 µM); in data set [21], 4 µg/mL; in data set [22], 2 µg/mL. Besides, the MIC turned out to be 4 µg/mL in data set [26]; 32 µg/mL in data set [28] (read-out: MIC); 4 µg/mL in data set [29]; 16 µg/mL in [31]; 0.125 µg/mL in data set [33]; 4 µg/mL in [36]. Moreover, the “fractional inhibitory concentration index (FICI)” value in data set [4] is listed as 0.6; in [30], 0.512; in data set [41], 0.254. Further, the mortality at 24 h, 32 microg/ml in data set [6] was 95%. Further, in [7], the MIC70 turned out to be 128 µg/mL. In addition, the mortality at 96 h, 4 microg/ml in data set [9] came out at 5%. For the same compound, the mortality at 24 h, 16 microg/ml in data set [11] is 75%. For the same compound, the inhibition at 128 µg/mL in [12] is 75%; in data set [27] it was 70%. In addition, the mortality at 96 h, 16 microg/ml in data set [15] came out at 100%. In addition, the mortality at 96 h, 2 microg/ml in data set [16] came out at 0%. Besides, in [17], the mortality at 24 h, 4 microg/ml is 0%. Also, the mortality at 96 h, 8 microg/ml in [23] stood at 95%. Moreover, in [24], the MIC75 worked out at 128 µg/mL. Besides, the mortality at 24 h, 8 microg/ml in data set [25] came to 15%; in [37] it was 35%. The mortality at 4 microg/ml in data set [32] was determined as 0%. Further, the mortality at 96 h, 0.7 microg/ml in data set [34] came to 0%. Moreover, the mortality at 96 h, 32 microg/ml in data set [35] was found to be 100%. The LC50 at 24 h in [38] came to 8.1 µg/mL (≈ 22.3 µM); in [39], 14 µg/mL (≈ 38.5 µM). Further, the median lethal concentration (LC50) at 96 h in data set [40] was found to be 6 µg/mL (≈ 16.5 µM).

As for `CC1=C(CC/C=C(\C)C(=O)N=C(N)N)[C@@]2(C)CCCC(C)(C)[C@@H]2CC1`, the MIC in [8] (read-out: MIC) came to 8 µg/mL (≈ 23.2 µM); in [19], 4 µg/mL; in data set [21], 4 µg/mL; in [26] it was 4 µg/mL; in [29], 4 µg/mL.

As to `CC1=C(CC/C=C(/C)C(=O)NC(=N)N)[C@@]2(C)CCCC(C)(C)[C@@H]2CC1`, the MIC was found to be 8 µg/mL (≈ 23.2 µM) in [8] (read-out: MIC); 4 µg/mL in [19]; 4 µg/mL in data set [21]; 4 µg/mL in data set [26]; 4 µg/mL in data set [29].

In the case of GENTAMICIN, the MIC100 in [28] came out at 4 µg/mL.

Take `C[C@@H](c1ncncc1F)[C@](O)(Cn1cncn1)c1ccc(F)cc1F` [VORICONAZOLE]: the MIC is at most 0.12 µg/mL in data set [8] (read-out: MIC100) and at least 1 µg/mL in [20].

`CC(=O)O[C@](C)(CCC1[C@](C)(OC(C)=O)CC[C@H]2C(C)(C)CCC[C@]12C)C(=O)N=C(N)N` (some centres undefined): the MIC in data set [8] (read-out: MIC) is 16 µg/mL (≈ 35.4 µM); in data set [19] it was 4 µg/mL; in data set [21], 4 µg/mL; in [26], 4 µg/mL; in data set [29] it was 4 µg/mL.
